Target: T1, PKM2 (pyruvate kinase M2) (Homo sapiens, UniProt P14618)
T1 construct: gene PKM; recombinant human PKM2 (Sigma-Aldrich #SAE0021)
Test: LDH-coupled PKM2 activity assay; confirmed by ATP production (CellTiter-Glo)
Assay type: biochemical

T1 sequence (P14618 2-531): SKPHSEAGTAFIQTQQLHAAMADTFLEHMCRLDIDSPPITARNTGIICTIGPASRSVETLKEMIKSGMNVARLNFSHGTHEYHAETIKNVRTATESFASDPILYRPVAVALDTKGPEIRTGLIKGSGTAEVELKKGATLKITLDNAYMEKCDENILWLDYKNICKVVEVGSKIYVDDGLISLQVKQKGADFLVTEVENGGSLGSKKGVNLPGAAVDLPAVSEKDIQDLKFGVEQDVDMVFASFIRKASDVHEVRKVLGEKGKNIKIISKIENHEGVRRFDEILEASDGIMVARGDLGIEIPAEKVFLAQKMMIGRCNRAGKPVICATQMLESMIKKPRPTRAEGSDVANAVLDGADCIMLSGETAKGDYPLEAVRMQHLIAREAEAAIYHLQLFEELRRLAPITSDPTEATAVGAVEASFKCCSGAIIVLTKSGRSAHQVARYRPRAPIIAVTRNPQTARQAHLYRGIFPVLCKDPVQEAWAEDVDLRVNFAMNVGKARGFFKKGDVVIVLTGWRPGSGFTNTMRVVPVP

IC50: 1.04 µM
Substance: methyl benzyl((4-chlorophenyl)(3-((methoxycarbonyl)oxy)-1,4-dioxo-1,4-dihydronaphthalen-2-yl)methyl)carbamate [MB-6a]

From paper PMC11673335, “Mannich Base Derived from Lawsone Inhibits PKM2 and Induces Neoplastic Cell Death” (Biomedicines, 2024)
